{"source": "patent US7122643B2", "about": "“Cytostatic lanthanum compounds” (Faustus Forschungs Cie. Translational Cancer Research GmbH, priority 2001, dated 2006)", "key": {"[1]": {"test_system": "over 50 human tumour cell lines"}, "[2]": {"test_system": "13 human tumour xenografts and 10 human tumour cell lines"}, "[3]": {"conditions": "mean over 13 human tumour xenografts and 10 human tumour cell lines"}}, "note": "pIC50: −log10 of the molar value."}
{"substance": "[tris(1,10-phenantrolin)lanthanum(III)]trithiocyanate", "values": [{"measurement": "Cytostatic effectiveness (in words)", "setting": "[1]; over 50 human tumour cell lines, 48-h", "value": "Good effectiveness"}, {"measurement": "Activity relative to average of the panel", "setting": "[1]; some melanoma and kidney cell carcinoma cell lines", "value": "Above average activities"}, {"measurement": "Cytostatic activity (in words)", "setting": "[2]; 13 human tumour xenografts and 10 human tumour cell lines", "value": "good cytostatic activity"}, {"measurement": "Activity relative to average of the panel", "setting": "[2]; mammary carcinoma cell lines MCF7, MDA468A, parvicellular bronchial carcinoma cell line DMS 114, one each of melanoma, ovarian, kidney cell and non-parvicellular bronchial carcinoma xenografts", "value": "Above average activities"}, {"measurement": "Mean IC50", "setting": "[2]; [3]", "value": 3.60, "unit": "µg/mL"}, {"measurement": "Mean IC90", "setting": "[2]; [3]", "value": 12.1, "unit": "µg/mL"}, {"measurement": "Tumour type selectivity", "setting": "[2]; prostate and colorectal carcinoma", "value": "selectivity for prostate and colorectal carcinoma"}, {"measurement": "pIC50", "setting": "[2]; read-out: Mean IC50, mean over 13 human tumour xenografts and 10 human tumour cell lines", "value": 5.38}, {"measurement": "IC90", "setting": "[2]; read-out: Mean IC90, mean over 13 human tumour xenografts and 10 human tumour cell lines", "value": 14.2, "unit": "µM"}]}
